Results reported in patent publication US9278962B2 (Cytokinetics, Inc., priority 2011, dated 2016).

tested on: rabbit skeletal myofibrils (approximately 90% fast fibers); test: Activation of fast skeletal myofibrils (PUMA coupled-enzyme ATPase assay, AC1.4); type: biochemical; conditions: Table 2; concentration at which the compound increased enzymatic activity by 40%; calcium at pCa25

**Q.** For `NC(=O)c1ccc(F)c(-c2nsc(NC3(c4ncccc4F)CCC3)n2)c1` [4-fluoro-3-(5-{[(3-fluoro(2-pyridyl))cyclobutyl]amino}(1,2,4-thiadiazol-3-yl))benzamide], which “Mean AC1.4” value is on record?
**A.** The value was “D (D=>20 uM)”.

**Q.** With `CC(C)(CNc1nc(-c2ccc(O)nc2)ns1)c1ccc(F)cc1` [5-(5-{[2-(4-fluorophenyl)-2-methylpropyl]amino}-1,2,4-thiadiazol-3-yl)pyridin-2-ol] as the molecule, how does the “Mean AC1.4” value read?
**A.** Its value is “B (B=1-10 uM)”.

**Q.** For `CC(C)(CNc1nc(-c2ccc(C(N)=O)nc2)ns1)c1ccc(F)cc1` [5-(5-{[2-(4-fluorophenyl)-2-methylpropyl]amino}-1,2,4-thiadiazol-3-yl)pyridine-2-carboxamide], which “Mean AC1.4” value is on record?
**A.** The value was “A (A=<1 uM)”.

**Q.** `CC(C)(CNc1nc(-c2cncc(C#N)c2)ns1)c1ccc(F)cc1` [5-(5-{[2-(4-fluorophenyl)-2-methylpropyl]amino}-1,2,4-thiadiazol-3-yl)pyridine-3-carbonitrile] was tested. Which “Mean AC1.4” value did it give?
**A.** The value was “B (B=1-10 uM)”.

**Q.** `CC(C)(CNc1nc(-c2cncc(C(N)=O)c2)ns1)c1ccc(F)cc1` [5-(5-{[2-(4-fluorophenyl)-2-methylpropyl]amino}-1,2,4-thiadiazol-3-yl)pyridine-3-carboxamide] was tested. Which “Mean AC1.4” value did it give?
**A.** Its value is “A (A=<1 uM)”.

**Q.** `C[C@H](CNc1nc(-c2ccc(O)nc2)ns1)c1ccc(F)cc1` [5-(5-{[(2S)-2-(4-fluorophenyl)propyl]amino}-1,2,4-thiadiazol-3-yl)pyridin-2-ol] was tested. Which “Mean AC1.4” value did it give?
**A.** Its value is “B (B=1-10 uM)”.

**Q.** For `C[C@H](CNc1nc(-c2cncc(C#N)c2)ns1)c1ccc(F)cc1` [5-(5-{[(2S)-2-(4-fluorophenyl)propyl]amino}-1,2,4-thiadiazol-3-yl)pyridine-3-carbonitrile], which “Mean AC1.4” value is on record?
**A.** The value was “C (C=10-20 uM)”.

**Q.** `C[C@H](CNc1nc(-c2cncc(C(N)=O)c2)ns1)c1ccc(F)cc1` [5-(5-{[(2S)-2-(4-fluorophenyl)propyl]amino}-1,2,4-thiadiazol-3-yl)pyridine-3-carboxamide] was tested. Which “Mean AC1.4” value did it give?
**A.** The value was “B (B=1-10 uM)”.

**Q.** `CC(C)(CNc1nc(C(N)=O)ns1)c1ccc(F)cc1` [5-{[2-(4-Fluorophenyl)-2-methylpropyl]amino}-1,2,4-thiadiazole-3-carboxamide] was tested. Which “Mean AC1.4” value did it give?
**A.** The value was “C (C=10-20 uM)”.

same assay, conditions: Table 3; concentration at which the compound increased enzymatic activity by 40%; calcium at pCa25

**Q.** For `N#Cc1ccc(F)c(-c2nnc(NC[C@]3(c4ncccc4F)C[C@H](F)C3)s2)c1` [4-fluoro-3-(5-((3-fluoro-1-(3-fluoropyridin-2-yl)cyclobutyl)methylamino)-1,3,4-thiadiazol-2-yl)benzonitrile], which “Mean AC1.4” value is on record?
**A.** The value was “B (B=1-10 uM)”.

**Q.** `Fc1cccnc1C1(CNc2nnc(-c3ccccc3Cl)s2)CCC1` [5-(2-chlorophenyl)-N-((1-(3-fluoropyridin-2-yl)cyclobutyl)methyl)-1,3,4-thiadiazol-2-amine] was tested. Which “Mean AC1.4” value did it give?
**A.** The value was “A (A=<1 uM)”.

**Q.** Which “Mean AC1.4” value does the source give for `CC(C)(CNc1nnc(-c2ccc3[nH]nc(N)c3c2)s1)c1ccc(F)cc1` [5-(3-amino-1H-indazol-5-yl)-N-(2-(4-fluorophenyl)-2-methylpropyl)-1,3,4-thiadiazol-2-amine] here?
**A.** Its value is “A (A=<1 uM)”.

**Q.** `Fc1cccnc1C1(CNc2nnc(-c3ccc(Br)cc3)s2)CCC1` [5-(4-bromophenyl)-N-((1-(3-fluoropyridin-2-yl)cyclobutyl)methyl)-1,3,4-thiadiazol-2-amine] was tested. Which “Mean AC1.4” value did it give?
**A.** Its value is “B (B=1-10 uM)”.

**Q.** For `Cc1cc(C#N)sc1-c1nnc(NC[C@]2(c3ncccc3F)C[C@H](F)C2)s1` [5-(5-((3-fluoro-1-(3-fluoropyridin-2-yl)cyclobutyl)methylamino)-1,3,4-thiadiazol-2-yl)-4-methylthiophene-2-carbonitrile], which “Mean AC1.4” value is on record?
**A.** The value was “B (B=1-10 uM)”.

**Q.** `Cc1cc(C(N)=O)sc1-c1nnc(NC[C@]2(c3ncccc3F)C[C@H](F)C2)s1` [5-(5-((3-fluoro-1-(3-fluoropyridin-2-yl)cyclobutyl)methylamino)-1,3,4-thiadiazol-2-yl)-4-methylthiophene-2-carboxamide] was tested. Which “Mean AC1.4” value did it give?
**A.** Its value is “B (B=1-10 uM)”.

**Q.** For `N#Cc1ccc(-c2nnc(NC[C@]3(c4ncccc4F)C[C@H](F)C3)s2)s1` [5-(5-((3-fluoro-1-(3-fluoropyridin-2-yl)cyclobutyl)methylamino)-1,3,4-thiadiazol-2-yl)thiophene-2-carbonitrile], which “Mean AC1.4” value is on record?
**A.** Its value is “D (D=>20 uM)”.

**Q.** How did the “Mean AC1.4” value turn out when `NC(=O)c1ccc(-c2nnc(NC[C@]3(c4ncccc4F)C[C@H](F)C3)s2)s1` [5-(5-((3-fluoro-1-(3-fluoropyridin-2-yl)cyclobutyl)methylamino)-1,3,4-thiadiazol-2-yl)thiophene-2-carboxamide] was run?
**A.** Its value is “B (B=1-10 uM)”.

**Q.** With `Fc1cccnc1[C@]1(CNc2nnc(-c3cc(Br)ccc3Cl)s2)C[C@H](F)C1` [5-(5-bromo-2-chlorophenyl)-N-(((cis)-3-fluoro-1-(3-fluoropyridin-2-yl)cyclobutyl)methyl)-1,3,4-thiadiazol-2-amine] as the molecule, how does the “Mean AC1.4” value read?
**A.** The value was “A (A=<1 uM)”.

**Q.** `Fc1cccnc1[C@]1(CNc2nnc(-c3cc(Br)ccc3Cl)s2)C[C@@H](F)C1` [5-(5-bromo-2-chlorophenyl)-N-(((trans)-3-fluoro-1-(3-fluoropyridin-2-yl)cyclobutyl)methyl)-1,3,4-thiadiazol-2-amine] was tested. Which “Mean AC1.4” value did it give?
**A.** The value was “A (A=<1 uM)”.

**Q.** `CC(C)(CNc1nnc(-c2cc(Br)ccc2F)s1)c1ncccc1F` [5-(5-bromo-2-fluorophenyl)-N-(2-(3-fluoropyridin-2-yl)-2-methylpropyl)-1,3,4-thiadiazol-2-amine] was tested. Which “Mean AC1.4” value did it give?
**A.** The value was “A (A=<1 uM)”.

**Q.** How did the “Mean AC1.4” value turn out when `CC(C)(Nc1nnc(-c2cc(Br)ccc2F)s1)c1ncccc1F` [5-(5-bromo-2-fluorophenyl)-N-(2-(3-fluoropyridin-2-yl)propan-2-yl)-1,3,4-thiadiazol-2-amine] was run?
**A.** Its value is “B (B=1-10 uM)”.

**Q.** Which “Mean AC1.4” value does the source give for `Fc1ccc(Br)cc1-c1nnc(NCC2(c3ncccc3F)CCC2)s1` [5-(5-bromo-2-fluorophenyl)-N-((1-(3-fluoropyridin-2-yl)cyclobutyl)methyl)-1,3,4-thiadiazol-2-amine] here?
**A.** The value was “A (A=<1 uM)”.

**Q.** For `Fc1ccc(Br)cc1-c1nnc(NC[C@]2(c3ncccc3F)C[C@@H](F)C2)s1` [5-(5-bromo-2-fluorophenyl)-N-(((cis)-3-fluoro-1-(3-fluoropyridin-2-yl)cyclobutyl)methyl)-1,3,4-thiadiazol-2-amine], which “Mean AC1.4” value is on record?
**A.** Its value is “A (A=<1 uM)”.

**Q.** How did the “Mean AC1.4” value turn out when `Fc1ccc(Br)cc1-c1nnc(NC[C@]2(c3ncccc3F)C[C@H](F)C2)s1` [5-(5-bromo-2-fluorophenyl)-N-(((trans)-3-fluoro-1-(3-fluoropyridin-2-yl)cyclobutyl)methyl)-1,3,4-thiadiazol-2-amine] was run?
**A.** The value was “A (A=<1 uM)”.

**Q.** For `Cc1ccc(Br)cc1-c1nnc(NC[C@]2(c3ncccc3F)C[C@@H](F)C2)s1` [5-(5-bromo-2-methylphenyl)-N-(((cis)-3-fluoro-1-(3-fluoropyridin-2-yl)cyclobutyl)methyl)-1,3,4-thiadiazol-2-amine], which “Mean AC1.4” value is on record?
**A.** Its value is “A (A=<1 uM)”.

**Q.** With `Cc1ccc(Br)cc1-c1nnc(NC[C@]2(c3ncccc3F)C[C@H](F)C2)s1` [5-(5-bromo-2-methylphenyl)-N-(((trans)-3-fluoro-1-(3-fluoropyridin-2-yl)cyclobutyl)methyl)-1,3,4-thiadiazol-2-amine] as the molecule, how does the “Mean AC1.4” value read?
**A.** The value was “A (A=<1 uM)”.

**Q.** For `Cc1cc(Br)sc1-c1nnc(NC[C@]2(c3ncccc3F)C[C@H](F)C2)s1` [5-(5-bromo-3-methylthiophen-2-yl)-N-((3-fluoro-1-(3-fluoropyridin-2-yl)cyclobutyl)methyl)-1,3,4-thiadiazol-2-amine], which “Mean AC1.4” value is on record?
**A.** The value was “B (B=1-10 uM)”.

**Q.** With `Fc1cccnc1[C@]1(CNc2nnc(-c3ccc(Br)s3)s2)C[C@H](F)C1` [5-(5-bromothiophen-2-yl)-N-(((cis)-3-fluoro-1-(3-fluoropyridin-2-yl)cyclobutyl)methyl)-1,3,4-thiadiazol-2-amine] as the molecule, how does the “Mean AC1.4” value read?
**A.** The value was “C (C=10-20 uM)”.

**Q.** For `Fc1cccnc1[C@]1(CNc2nnc(-c3ccc(Br)s3)s2)C[C@@H](F)C1` [5-(5-bromothiophen-2-yl)-N-(((trans)-3-fluoro-1-(3-fluoropyridin-2-yl)cyclobutyl)methyl)-1,3,4-thiadiazol-2-amine], which “Mean AC1.4” value is on record?
**A.** The value was “B (B=1-10 uM)”.

**Q.** Which “Mean AC1.4” value does the source give for `CCc1ccc(F)c(-c2nnc(NC[C@]3(c4ncccc4F)C[C@H](F)C3)s2)c1` [5-(5-ethyl-2-fluorophenyl)-N-((3-fluoro-1-(3-fluoropyridin-2-yl)cyclobutyl)methyl)-1,3,4-thiadiazol-2-amine] here?
**A.** Its value is “A (A=<1 uM)”.

**Q.** For `Fc1cccnc1C1(CNc2nnc(Cc3ccccc3)s2)CCC1` [5-benzyl-N-((1-(3-fluoropyridin-2-yl)cyclobutyl)methyl)-1,3,4-thiadiazol-2-amine], which “Mean AC1.4” value is on record?
**A.** Its value is “D (D=>20 uM)”.

**Q.** Which “Mean AC1.4” value does the source give for `Fc1cccnc1C1(CNc2nnc(C3CCCC3)s2)CCC1` [5-cyclopentyl-N-((1-(3-fluoropyridin-2-yl)cyclobutyl)methyl)-1,3,4-thiadiazol-2-amine] here?
**A.** Its value is “B (B=1-10 uM)”.

same assay, conditions: Table 4; concentration at which the compound increased enzymatic activity by 40%; calcium at pCa25

**Q.** For `CC(C)(CNc1nc2cc(Cl)ccc2s1)c1ccc(F)cc1` [5-chloro-N-(2-(4-fluorophenyl)-2-methylpropyl)benzo[d]thiazol-2-amine], which “Mean AC1.4” value is on record?
**A.** The value was “B (B=1-10 uM)”.

same assay, conditions: Table 5; concentration at which the compound increased enzymatic activity by 40%; calcium at pCa25

**Q.** For `Cn1nc(NC2(c3ncccc3F)CCC2)nc1-c1cc(Br)ccc1F` [5-(5-bromo-2-fluorophenyl)-N-(1-(3-fluoropyridin-2-yl)cyclobutyl)-1-methyl-1H-1,2,4-triazol-3-amine], which “Mean AC1.4” value is on record?
**A.** The value was “D (D=>20 uM)”.

**Q.** With `Cn1nc(-c2cc(Br)ccc2F)nc1NC1(c2ncccc2F)CCC1` [5-(5-bromo-2-fluorophenyl)-N-(1-(3-fluoropyridin-2-yl)cyclobutyl)-2-methyl-2H-1,2,4-triazol-3-amine] as the molecule, how does the “Mean AC1.4” value read?
**A.** The value was “D (D=>20 uM)”.

**Q.** Which “Mean AC1.4” value does the source give for `Fc1ccc(Br)cc1-c1nnc(NC2(c3ncccc3F)CCC2)[nH]1` [5-(5-bromo-2-fluorophenyl)-N-(1-(3-fluoropyridin-2-yl)cyclobutyl)-4H-1,2,4-triazol-3-amine] here?
**A.** Its value is “D (D=>20 uM)”.

**Q.** How did the “Mean AC1.4” value turn out when `CC(C)(Nc1nnc(-c2cc(Br)ccc2F)o1)c1ccc(F)cc1` [5-(5-bromo-2-fluorophenyl)-N-(2-(4-fluorophenyl)propan-2-yl)-1,3,4-oxadiazol-2-amine] was run?
**A.** The value was “B (B=1-10 uM)”.
